Biological target: Coagulation factor VII (Homo sapiens) (UniProt P08709)
Experiment: Inhibition of human FVIIa

Sequence of Coagulation factor VII (Homo sapiens) (P08709 whole entry, looked up): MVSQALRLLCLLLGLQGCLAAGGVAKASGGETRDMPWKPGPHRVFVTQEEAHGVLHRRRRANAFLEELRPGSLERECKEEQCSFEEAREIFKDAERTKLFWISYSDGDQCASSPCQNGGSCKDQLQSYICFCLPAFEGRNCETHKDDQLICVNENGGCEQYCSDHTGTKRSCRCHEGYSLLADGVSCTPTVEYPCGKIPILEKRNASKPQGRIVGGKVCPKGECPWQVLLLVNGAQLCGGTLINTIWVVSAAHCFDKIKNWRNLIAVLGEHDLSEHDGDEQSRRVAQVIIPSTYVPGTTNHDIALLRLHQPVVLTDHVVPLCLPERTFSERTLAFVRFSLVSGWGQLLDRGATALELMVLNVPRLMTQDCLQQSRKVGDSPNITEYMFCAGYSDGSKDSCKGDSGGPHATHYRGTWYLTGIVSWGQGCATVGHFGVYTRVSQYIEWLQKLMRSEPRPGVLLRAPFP

Ki | SMILES
> 50 µM | N=C(N)c1ccc(CNC(=O)[C@@H]2Cc3ccc(cc3)NC(=O)CCN3CCN(CCC(=O)Nc4ccc(cc4)C[C@@H](NS(=O)(=O)Cc4ccccc4)C(=O)N2)CC3)cc1
> 30 µM | N=C(N)c1ccc(CNC(=O)[C@@H]2Cc3ccc(cc3)NC(=O)CN3CCN(CC3)CC(=O)Nc3ccc(cc3)C[C@@H](NS(=O)(=O)Cc3ccccc3)C(=O)N2)cc1
